Measurements from patent US20250093329A1, “SCREENING OF COMPOUNDS” (THE UNIVERSITY OF TULSA, priority 2022, published 2025).

Key:
Type in all cases: cell-based
lung cancer cells A549 = assay: Rapid one hour CellTiter-Glo ATP screening (FIGS. 16-18, 21-24); settings: for effectiveness by POC (FIG. 17): 10-30 μM; for effectiveness by POC (FIG. 24): L15 media
Excerpt: (§1) When used to identify compounds for specific patients, the following steps will be carried out: • Individualized patient cells will be acquired from a tumor biopsy and cultured/grown in patient blood serum and/or plasma. (In most instances the cells will be obtained using a needle biopsy; i.e. fine needle aspiration biopsy. Optionally, the cells may be obtained from resected tumor (i.e. excisional biopsy, which is an attempt at complete tumor removal), and/or a core biopsy; (i.e. removal of part of the tumor). Alternatively, cells may be obtained from blood draw samples, which would contain leukemia, lymphoma and myeloma cells.) • The cells (as few as 100 cells per experiment) will be screened directly in patient blood serum and/or plasma in the absence or presence of glycolysis inhibitor, 2-deoxyglucose (2DG) using a rapid (1-2 hr) screening assay (CellTiter-Glo, or “CTG”). • NOTE: while the discussion herein focuses on CTG, other assays suitable for measuring changes in ATP levels will perform equally as well. […] DMEM contains glucose, but L15 has substituted glucose with galactose. This means that in DMEM, 2DG is added to inhibit glycolysis; but in L15, the addition of 2DG is unnecessary to achieve the same result as the lack of glucose in L15 precludes access to the metabolic pathway that would utilize glucose. […] The compounds identified with compound numbers 140-161 as depicted in FIGS. 11 and 12 were tested in this manner. NOTE: compound number 141 is Gramicidin, also known as Gramicidin D. This antibiotic is identified by CAS number 1393-88-0. • The rapid screening assay provides evidence of unexpected drug activity for known drugs against cancer cell lines. Thus, the screening of FDA-approved drugs for synergistic activity with metabolic inhibitors can provide anticancer drugs from drugs currently used for other purposes.
The data presented in FIGS. 16-33 was developed using compounds 140-161 as depicted in FIGS. 11 and 12. The graphs of FIGS. 16-33 provide a direct comparison of the rapid screening method wherein the tests were carried out over one hour (CTG) using Dulbecco's Modified Eagle Medium (DMEM), […] 2DG and L15 media (described below), a cell media that is missing glucose; the equivalent to DMEM plus 2DG. Compounds 140-161 were screened against lung cancer cells designated A549. Similar results are obtained in most cases, but a few examples show significant enhancement of activity in L15. As used in the discussion below, Rot=rotenone, and 2DG+Rot=a positive control (ATP should be inhibited to a high degree).
FIG. 16 provides a comparison of DMEM and L15 media at 50-200 μM. After one hour of exposure and assessment of the ATP values using CellTiter-Glo assay, the “percent of control” (POC) value is determined with respect to the DMSO control. As reflected by FIG. 16, the following compounds, at the indicated concentrations, would be considered effective against the cancer cells of line A549: 140, 142, 149, 150, 155, 156, 159, 160, 161. The same compounds were tested at 10-30 μM with the results depicted in FIG. 17. At these concentrations, the following compounds would be considered effective at least one concentration level: 141, 155, 156, 159, 160.
FIG. 18 provides a comparison of DMEM with 10 mM 2DG with the compounds of interest at concentrations of 50 to 200 μM and 10 to 30 μM to L15 Media with the compounds of interest at concentrations of 50 to 200 μM and 10 to 30 μM. The compounds were tested against the same cancer cell line with one hour of exposure and CTG assay with POC reported against a DMSO control. Under the reported conditions the following compounds would be considered to have effectiveness in treating the cancer cell line at least one concentration level: 140, 141, 149, 155, 156, 159, 160, 161.
FIGS. 21 and 22 provide test data developed using the rapid testing method described above. […]

[1] = Rapid one hour CellTiter-Glo ATP screening in L15 (FIG. 26); settings: MCF10A; L15 media; one hour CTG; at least one concentration level
[2] = test system: ovarian cancer cell line HeLa; assay: Rapid one hour CellTiter-Glo ATP screening in L15 (FIG. 28); settings: for effectiveness by POC (FIG. 28): L15 media, one hour CTG, at least one concentration level
Excerpt: [The source words this procedure for another cell line and reports this cell line under the same test.] as §1
(§2) The data presented in FIGS. 16-33 was developed using compounds 140-161 as depicted in FIGS. 11 and 12. […]

[3] = test system: breast cancer cell line MCF7; assay: Rapid one hour CellTiter-Glo ATP screening in L15 (FIG. 29); settings: for effectiveness by POC (FIG. 29): L15 media, one hour CTG, at least one concentration level
Excerpt: [The source words this procedure for another cell line and reports this cell line under the same test.] as §1, §2

[4] = test system: pancreatic cancer cell line SW-1990; assay: Rapid one hour CellTiter-Glo ATP screening in L15 (FIG. 30); settings: for effectiveness by POC (FIG. 30): L15 media, one hour CTG, at least one concentration level
Excerpt: [The source words this procedure for another cell line and reports this cell line under the same test.] as §1, §2

[5] = test system: pancreatic cancer cell line CFPAC-1; assay: Rapid one hour CellTiter-Glo ATP screening in L15 (FIG. 31)
Excerpt: [The source words this procedure for another cell line and reports this cell line under the same test.] (§3) When used to identify compounds for specific patients, the following steps will be carried out: • Individualized patient cells will be acquired from a tumor biopsy and cultured/grown in patient blood serum and/or plasma. (In most instances the cells will be obtained using a needle biopsy; i.e. fine needle aspiration biopsy. Optionally, the cells may be obtained from resected tumor (i.e. excisional biopsy, which is an attempt at complete tumor removal), and/or a core biopsy; (i.e. removal of part of the tumor). Alternatively, cells may be obtained from blood draw samples, which would contain leukemia, lymphoma and myeloma cells.) • The cells (as few as 100 cells per experiment) will be screened directly in patient blood serum and/or plasma in the absence or presence of glycolysis inhibitor, 2-deoxyglucose (2DG) using a rapid (1-2 hr) screening assay (CellTiter-Glo, or “CTG”). • NOTE: while the discussion herein focuses on CTG, other assays suitable for measuring changes in ATP levels will perform equally as well. […] DMEM contains glucose, but L15 has substituted glucose with galactose. This means that in DMEM, 2DG is added to inhibit glycolysis; but in L15, the addition of 2DG is unnecessary to achieve the same result as the lack of glucose in L15 precludes access to the metabolic pathway that would utilize glucose. […]

[6] = test system: A549, NCI H196 and MCF10A; assay: Comparison of effectiveness between cell lines (FIG. 27); settings: 50 μM to 200 μM, L15, one hour CTG
Procedure: FIG. 27 provides a comparison of the effectiveness of the compounds against A549, NCI H196 and MCF10A at concentrations in the range of 50 μM to 200 μM.

MCF7 and MCF10A = assay: Comparison of cancerous and non-cancerous cells (FIG. 33); settings: 10 μM to 30 μM
Procedure: FIG. 33 compares the impact of compounds 140-161 on breast cancer cell line MCF7 and non-cancerous […] cells MCF10A. All compounds tested were in the range of 10 μM to 30 μM.

[7] = test system: lung cancer cell line NCI H196; assay: Rapid one hour CellTiter-Glo ATP screening in L15 (FIG. 25); settings: L15 media, one hour CTG, at least one concentration level
Excerpt: [The source words this procedure for another cell line and reports this cell line under the same test.] as §3

[8] = DMEM and L15 media, one hour, at least one concentration level
[9] = 1-8 μm, 10-30 μM and 50-200 μM, one hour CTG, at least one concentration level

## CN(C)CCCOc1nn(Cc2ccccc2)c2ccccc12 [Compound 156, benzydamine]
Lung cancer cells A549; 145 μM in L15
  effectiveness (FIG. 23): unexpected effectiveness
Lung cancer cells A549; [8]
  effectiveness by POC (FIG. 17): effective
Lung cancer cells A549; DMEM and L15 media, 50-200 μM, one hour, CellTiter-Glo, DMSO control
  effectiveness by POC (FIG. 16): effective
Lung cancer cells A549; DMEM with 10 mM 2DG, 1-8 μm, 10-30 μM and 50-200 μM, one hour CTG, at least one concentration level
  effectiveness by POC when combined with 2DG (FIG. 22): effective
Lung cancer cells A549; [9]
  effectiveness by POC (FIG. 24): likely to be effective
[1]
  effectiveness by POC (FIG. 26): likely effective
[2]; 145 μM, L15
  effectiveness against ovarian cancer (FIG. 28): effective
[2]
  effectiveness by POC (FIG. 28): likely effective
[3]; 145 μM, L15
  effectiveness against breast cancer (FIG. 29): effective
[3]
  effectiveness by POC (FIG. 29): likely effective
[4]; 145 μM, L15
  effectiveness against pancreatic cancer (FIG. 30): effective
[4]
  effectiveness by POC (FIG. 30): likely effective
[5]; 145 μM, L15
  effectiveness against pancreatic cancer (FIG. 31): effective
[5]; L15 media, one hour CTG, at least one concentration level
  effectiveness by POC (FIG. 31): likely effective
[6]
  subtype specificity (FIG. 27): subtype specificity
MCF7 and MCF10A
  impact on cancerous versus non-cancerous cells (FIG. 33): significantly more impact on the cancerous cells

## Gramicidin [Compound 141]
Lung cancer cells A549; [8]
  effectiveness by POC (FIG. 17): effective
Lung cancer cells A549; [9]
  effectiveness by POC (FIG. 24): likely to be effective
[7]
  effectiveness by POC (FIG. 25): likely effective
[1]
  effectiveness by POC (FIG. 26): likely effective
[2]
  effectiveness by POC (FIG. 28): likely effective
[3]
  effectiveness by POC (FIG. 29): likely effective
[4]
  effectiveness by POC (FIG. 30): likely effective
[6]
  subtype specificity (FIG. 27): subtype specificity
